Values of other authors, collected in patent publication US12017989B2, “Controlled release pharmaceutical formulations” (United Therapeutics Corporation, priority 2013, dated 2024).

Settings: continuous subcutaneous infusion using a pump; Wade et al., J Clin Pharmacol 2004

SMILES: CCCCC[C@H](O)CC[C@@H]1[C@H]2Cc3cccc(OCC(=O)O)c3C[C@H]2C[C@H]1O [treprostinil]
- peak-to-trough variation of concentration profile: 20-30%
